Test systems include HCT-15 colon; HOP-62 NSCLC; IGROV1 ovarian; MOLT-4 leukemia; OVCAR-3 ovarian; OVCAR-8 ovarian; SF-268 CNS; SN12C renal; UO-31 renal; NCI-H23 lung.
Holding throughout (assay): NCI-60 cell line screen, 48 h

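Test compounds were applied to cells in 96-well plates for 48 hours at 5 doses. GI50: concentration for 50% inhibition of growth. TGI is the concentration that stops growth completely.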

With `FC(F)(F)c1ccc2c(c1)nc(-c1ccc(Cl)cc1)n2CC1CCCN2CCCCC12` (stereo unspecified), the TGI is 28.8 µM in the experiment with HCT-15 colon; 28.6 µM with HOP-62 NSCLC; 27.8 µM with IGROV1 ovarian; 13 µM with MOLT-4 leukemia; 33.6 µM with OVCAR-3 ovarian; 30.1 µM in the experiment on OVCAR-8 ovarian. The figures for the TGI in the experiment with SF-268 CNS, with SN12C renal and in the experiment with UO-31 renal were 27.5 µM, 26 µM and 22.9 µM, respectively.

Regarding `CC(C)(C)[Si](C)(C)Oc1ccc(C2CNC(=O)C23CCC(=O)N3Cc2ccccc2)cc1` (stereo unspecified), the TGI in the experiment with HCT-15 colon is 30 µM; in the experiment on HOP-62 NSCLC it was 53.3 µM; in the experiment on IGROV1 ovarian it was 31.6 µM; in the experiment with MOLT-4 leukemia it was more than 100 µM; in the experiment with NCI-H23 lung it was 25.5 µM; with OVCAR-3 ovarian, 33 µM. Besides, the TGI in the experiment on OVCAR-8 ovarian is 28.8 µM; in the experiment with SF-268 CNS, 26 µM; with SN12C renal it was 35.9 µM; in the experiment on UO-31 renal it was 32.9 µM.

Turning to `Oc1cn(-c2ccc(Cl)cc2)nc1-c1n[nH]c(=S)n1-c1ccccc1`, the TGI is 14.9 µM in the experiment on HCT-15 colon; 22.7 µM in the experiment on HOP-62 NSCLC; 22.2 µM in the experiment on IGROV1 ovarian; more than 100 µM with MOLT-4 leukemia; 23.9 µM with NCI-H23 lung; 9.4 µM in the experiment on OVCAR-3 ovarian. Further, the TGI in the experiment with OVCAR-8 ovarian is 34.6 µM; in the experiment with SF-268 CNS, 64.2 µM; with SN12C renal, more than 100 µM; with UO-31 renal, 62.7 µM.

Consider `COC(C)(C)OCCN1CCN(CCN2C3=C(C=C(C(C)=O)C3)Sc3ccccc32)CC1`, for which the TGI with HCT-15 colon is 40.9 µM; in the experiment on HOP-62 NSCLC, 36.2 µM; in the experiment on IGROV1 ovarian, 35.5 µM; in the experiment with MOLT-4 leukemia, 36.7 µM; in the experiment with NCI-H23 lung, 73.5 µM; with OVCAR-3 ovarian it was 45.8 µM. For the same compound, the TGI in the experiment with OVCAR-8 ovarian turned out to be 42.1 µM; with SF-268 CNS it was 43.2 µM; in the experiment with SN12C renal, 69.8 µM; with UO-31 renal it was 43.1 µM.

For the compound `NCCCn1c2c(c3ccc([N+](=O)[O-])cc3c1=O)C(=O)c1ccccc1-2`, the GI50 with HCT-15 colon is 29 nM; with IGROV1 ovarian it was 215 nM; with MOLT-4 leukemia, 114 nM; with NCI-H23 lung it was 78 nM; with OVCAR-3 ovarian, 96.6 nM; in the experiment on OVCAR-8 ovarian it was 114 nM. The GI50 is 240 nM in the experiment on SF-268 CNS, 29.7 nM with SN12C renal and 110 nM with UO-31 renal. The TGI is 0.81 µM in the experiment with HCT-15 colon; more than 50 µM with IGROV1 ovarian; more than 50 µM in the experiment with MOLT-4 leukemia; 2.42 µM with NCI-H23 lung; 0.525 µM in the experiment with OVCAR-3 ovarian; 0.77 µM in the experiment with OVCAR-8 ovarian. In addition, the TGI with SF-268 CNS is more than 12.2 µM; with SN12C renal it was 0.16 µM; in the experiment with UO-31 renal, more than 50 µM.

Regarding `Cc1c2cccc-2c(OCCO)cc2c3ccccc3n(C)c12`, the TGI is 45 µM with HCT-15 colon; 16.1 µM with HOP-62 NSCLC; 7.77 µM in the experiment with IGROV1 ovarian; 34.6 µM in the experiment with MOLT-4 leukemia; more than 100 µM in the experiment on NCI-H23 lung; 5.56 µM in the experiment with OVCAR-3 ovarian. Moreover, the TGI with OVCAR-8 ovarian was 10.1 µM; with SF-268 CNS, 25.6 µM; in the experiment with SN12C renal, 14.4 µM; in the experiment with UO-31 renal, 10.6 µM.

For `Cc1cc2c(cc1C(=O)c1ccc(N)cc1)OCO2`, the TGI in the experiment with HCT-15 colon is more than 100 µM; in the experiment on HOP-62 NSCLC, more than 100 µM; in the experiment with IGROV1 ovarian, more than 100 µM; in the experiment with MOLT-4 leukemia, more than 100 µM; with NCI-H23 lung, more than 100 µM; with OVCAR-3 ovarian, 0.966 µM. Further, the TGI with OVCAR-8 ovarian, in the experiment on SF-268 CNS, in the experiment with SN12C renal and in the experiment on UO-31 renal was more than 100 µM throughout.

With `COc1ccc(/C(Cl)=C(\C=O)c2ccc(OC)cc2)cc1`, the TGI in the experiment on HCT-15 colon, in the experiment with HOP-62 NSCLC, with IGROV1 ovarian, in the experiment with MOLT-4 leukemia, in the experiment with NCI-H23 lung and in the experiment with OVCAR-3 ovarian was more than 100 µM throughout. Besides, the TGI with OVCAR-8 ovarian, with SF-268 CNS, in the experiment on SN12C renal and in the experiment on UO-31 renal was more than 100 µM throughout.

As for `CCc1nc(N)nc(N)c1-c1ccc([N+](C)(C)C)cc1`, the TGI with HCT-15 colon, with HOP-62 NSCLC, in the experiment with IGROV1 ovarian, with MOLT-4 leukemia, in the experiment with NCI-H23 lung and with OVCAR-3 ovarian was more than 100 µM throughout. Also, the TGI with OVCAR-8 ovarian, in the experiment on SF-268 CNS, with SN12C renal and in the experiment with UO-31 renal was more than 100 µM each time.

As for `O=P1(c2ccccc2)Nc2ccccc2SSc2ccccc2N1`, the TGI with HCT-15 colon came to 35.8 µM; in the experiment on IGROV1 ovarian, 38.2 µM; in the experiment on MOLT-4 leukemia it was 49.9 µM; in the experiment with NCI-H23 lung, 32.7 µM; in the experiment on OVCAR-3 ovarian, 28.3 µM; in the experiment on OVCAR-8 ovarian, 37.2 µM. The TGI in the experiment on SF-268 CNS is 34 µM; with SN12C renal it was 32.8 µM; in the experiment on UO-31 renal, 27.2 µM.

As to `Cc1cc(/N=C/c2ccc(F)cc2)n(-c2ccccc2)n1`, the TGI in the experiment on HCT-15 colon, in the experiment with HOP-62 NSCLC, in the experiment with IGROV1 ovarian, with MOLT-4 leukemia, in the experiment on NCI-H23 lung and in the experiment with OVCAR-3 ovarian was more than 100 µM each time. For the same compound, the TGI in the experiment on OVCAR-8 ovarian, in the experiment on SF-268 CNS, with SN12C renal and with UO-31 renal was more than 100 µM each time.

Regarding `CCOC(=O)c1c2c(n(Cc3ccccc3)c1C)C(=O)C(=O)c1ccccc1-2`, the TGI with HCT-15 colon is 2.58 µM; with HOP-62 NSCLC, 0.536 µM; in the experiment on IGROV1 ovarian it was more than 100 µM; with MOLT-4 leukemia it was 1.8 µM; in the experiment on NCI-H23 lung, 1.07 µM; in the experiment on OVCAR-3 ovarian, 0.167 µM. In addition, the TGI in the experiment on OVCAR-8 ovarian is 1.07 µM; in the experiment with SF-268 CNS, 1.27 µM; in the experiment on SN12C renal, 0.333 µM; with UO-31 renal, more than 100 µM.
